Experimental data as given in PMC12744750 (Plant Communications, 2025).
“Also recorded” adds a separate entry of the source.

Key:
[1] = tested on: Arabidopsis pls mutant seedlings (primary root length); experiment: Hydroponic peptide feeding: rescue of short primary root of pls mutant; assay type: in vivo, Arabidopsis thaliana; details: for rescue of root growth of pls seedlings: 50 nM peptide, n = 25 (Figure 2C)
Protocol: (A) Amino acid sequence of the PLS peptide from Arabidopsis thaliana with the Camelina sativa PLS sequence and the synthetic truncations N1, N2, C1, and C2 indicated by horizontal lines. Two cysteine residues are highlighted in bold. (B) Effect of the synthetic Arabidopsis PLS full-length peptide, A. thaliana PLS(FL), and the Camelina PLS peptide (C. sativa PLS) on Arabidopsis primary root length. Wild-type (C24; blue bars) and pls mutant seedlings (orange bars) were grown hydroponically in the presence (100 nM) or absence of peptide for 10 days. ∗∗∗P < 0.05, t-test between C24 and pls. Error bars show ±1 standard error of the mean, n = 20. (C) Effect of synthetic full-length and truncated peptides on primary root length of wild-type (blue bars) and pls mutant (orange bars) Arabidopsis. Seedlings were grown hydroponically in the presence of 50 nM peptide for 10 days. C1, C-terminal 14 amino acids; C2, C-terminal 24 amino acids; N1, N-terminal 22 amino acids; N2, N-terminal 9 amino acids; full-length PLS, 36 amino acids. Error bars show ±1 standard error of the mean, n = 25. ∗∗∗P < 0.05, t-test between C24 and pls.
proPLS::PLS:GFP comprises a 1.5-kb PLS promoter sequence ([Casson et al., 2002]) fused to the PLS open reading frame in pMDC107 (obtained from Prof. P.J. Hussey, Durham University) as a C-terminal GFP translational fusion. The PLS ORF with its 1.5-kb promoter was amplified from the TOPO 2.1 vector, which contained the PLS gene sequence with promoter ([Casson et al., 2002]); the primers used for cloning are listed in supplemental Table 9. pls mutant plants were transformed using the method of [Clough and Bent (1998)]. proPLS::GFP plants were generated using the 1.5-kb PLS promoter ([Casson et al., 2002]) fused to GFP in a wild-type background. p35S::GFP seedlings were obtained from Dr. Piers Hemsley, Durham University. Seedlings of Arabidopsis thaliana ecotype C24 or Col-0, pls mutants, and transgenic PLS overexpressers, all from lab stocks, were grown on solid sterile half-strength (2.2 g/l) Murashige and Skoog medium (Sigma-Aldrich) containing 10 g/l sucrose (half-strength [½] MS10 medium) solidified with 2.5 g/l Phytagel (Sigma-Aldrich) in 90-mm Petri dishes (Sarstedt, Leicester, UK) at 21°C under a 16-h photoperiod as described previously ([Casson et al., 2002]; [Chilley et al., 2006]). N. benthamiana plants (lab stocks) were grown in a controlled environment (21°C, 16-h photoperiod) for transient expression studies in leaf tissue. For hydroponic feeding studies, Arabidopsis seedlings were cultured in liquid ½ MS10 medium (1 ml/well) in sterile 24-well plates (Sarstedt), essentially as described in [Matsuzaki et al. (2010]). For hormone and peptide assays, one seedling was grown in each well at 21°C under a 16-h photoperiod. For peptide feeding experiments, purified freeze-dried peptide was dissolved in DMSO to create a 500-μM stock solution. The peptide stock solution was added to liquid ½ MS10 medium containing 0.1% DMSO to obtain a final peptide concentration of 50 or 100 nM (or 10, 25, 50, and 100 nM for dose-dependent assays). For copper treatments, 1 mM CuSO4 solution was filter sterilized and added to autoclaved liquid ½ MS10 medium to obtain final CuSO4 concentrations of 0, 5, 10, 15, 20, 25, 30, 35, 40, 45, and 50 μM. Seedlings were scanned to create a digital image, and root lengths of the seedlings were measured using ImageJ. Statistical analysis was performed using Real Statistics Resource Pack software (release 3.8, www.real-statistics.com) in Excel (Microsoft) using data from at least 10 independently grown seedlings for root growth analysis; specific numbers are defined for each experiment.

[2] = Anaerobic Cu(I) titration in competition with bicinchoninic acid (BCA); assay type: binding; details: synthetic peptide; mutant 40 μM, BCA 93.3 μM, mean ± SD, n = 3 (supplemental Figure 10)
Protocol: Freeze-dried synthetic PLS peptide (Cambridge Research Biochemicals) was dissolved in DMSO. An aliquot was added to aqueous buffer (10 mM HEPES [pH 7], 20 mM NaCl, 80 mM KCl), and absorbance was recorded at 280 nm. PLS concentration was estimated from the absorbance and the ProtParam estimated extinction coefficient of 2980 M^−1 cm^−1. Concurrently, a sample was submitted for quantitative amino acid analysis (Abingdon Health Laboratory Services). From this analysis, a conversion factor of 2.27 was generated, which was applied to the concentrations determined by A280 nm.
A fusion of PLS to MBP was created using the NEBExpress MBP Fusion and Purification System. Two complementary oligonucleotide primers encoding PLS (optimized for expression in E. coli) were annealed and inserted into the pMal-c5x plasmid at the XmnI and SalI insertion sites. The three mutants MBP:PLS(C6S), MBP:PLS(C17S), and MBP:PLS(C6S/C17S) were created by site-directed mutagenesis (QuikChange II, Agilent). E. coli NEB Express containing the pMal plasmid with the correct MBP:PLS mutant was used to overexpress each protein. Harvested cells were resuspended in 20 mM Tris–HCl (pH 7.4), 200 mM NaCl, and 1 mM EDTA, then frozen at −20°C overnight. Cells were defrosted in cold H2O, sonicated, purified by ammonium sulfate precipitation (where MBP-PLS precipitates >60% saturation), separated on an MBP-Trap column (GE Healthcare), and eluted using buffer containing 10 mM maltose. MBP:PLS-containing fractions were pooled and concentrated using a centrifugal concentrator (Corning, Spin-X UF 30 kDa) and buffer exchanged by desalting column into a metal-free buffer of 20 mM HEPES (pH 7.0) and 50 mM NaCl in an anaerobic chamber (Belle Technology). Mutants containing thiols were quantified using Ellman’s assay, and MBP:PLS(C6S/C17S), which lacks all thiols, was quantified using the Bradford assay alone. Samples were also analyzed for metal content by ICP–MS to ensure >95% apo-protein.
All Cu(I) titration experiments were carried out in an anaerobic chamber (Belle Technology) using metal-free CHELEX-treated, degassed buffers. For titration experiments with Cu(I), aqueous CuSO4 stock was quantified in advance by ICP–MS and diluted to working concentrations. The reductant NH2OH was included at a final concentration of 1 mM to maintain Cu(I) in its reduced state. Proteins were diluted in buffer to the final concentration specified in each titration in air-tight quartz cuvettes (Helma), and after addition of probe to the concentration specified, titrated with CuSO4. After each addition, solutions were thoroughly mixed and absorbance spectra recorded using a Lambda 35 UV/Vis spectrophotometer (PerkinElmer). Titration isotherm data were fitted using simulated affinity curves with DynaFit ([Kuzmič, 2009]).

pls mutant = details: cited from earlier work
Excerpt: Transgenic complementation of the mutant by the PLS gene (AT4G39403), which encodes a 36-amino-acid peptide, suppresses the mutant phenotype ([ ... || The pls mutant is rescued by the supply of silver ions ([Casson et al., 2002]), and silver is likely delivered to the ethylene receptor via RAN1 ([Binder et al., 2010]); these findings argue against a mechanism in which PLS acts downstream of RAN1 to metalate ETR1 in the ER lumen. It is also unlikely that PLS removes Cu(I) from the receptor, as this would inactivate the receptor and lead to enhanced ethylene signaling in the presence of PLS, which is the opposite of what would be expected from the pls mutant phenotype. We therefore favor a model (Figure 6) in which PLS binds ETR1 as part of th ...

pPLS::GUS = pPLS::GUS expression in root tips after hormone treatment; assay type: in vivo, Arabidopsis; details: 10 μM 2,4-D, root tips
Excerpt: Figure S15. The link between auxi n and et hyl ene si gnal l i ng ef f ect s on PLS transcription, and downstream ef f ect s on et hyl ene responses.
(A) Ant agoni sm between auxi n and et hyl ene on PLS expressi on.
Auxin posit ively regulates PLS gene transcription, whi l e ACC (ethylene pr ecur sor ) […]
Lef t upper panel: pPLS::GUS […]
expr ession in the Arabidopsis root tip under standard gr owt h conditions. Lef t lower panel: pPLS::PLS:GFP expr ession in the Arabidopsis root tip under standard gr owt h conditions.
Ri ght panel: pPLS::GUS expr ession in root tips treated wi t h 10 μM 2,4-D, showing ect opic […]
10 μM 2,4-D plus 10 μm ACC, showing the ant agonism of the inductive eff ect of 2,4-D on PLS::GUS expr ession. Images ar e representative of 10 independently gr own roots. […]

[3] = target: T1, full-length ETR1, recombinant, purified and fluorescently labeled (Arabidopsis, UniProt P49333 1-738, fluorescent label (dye and site not stated)); experiment: MST
T1 chain: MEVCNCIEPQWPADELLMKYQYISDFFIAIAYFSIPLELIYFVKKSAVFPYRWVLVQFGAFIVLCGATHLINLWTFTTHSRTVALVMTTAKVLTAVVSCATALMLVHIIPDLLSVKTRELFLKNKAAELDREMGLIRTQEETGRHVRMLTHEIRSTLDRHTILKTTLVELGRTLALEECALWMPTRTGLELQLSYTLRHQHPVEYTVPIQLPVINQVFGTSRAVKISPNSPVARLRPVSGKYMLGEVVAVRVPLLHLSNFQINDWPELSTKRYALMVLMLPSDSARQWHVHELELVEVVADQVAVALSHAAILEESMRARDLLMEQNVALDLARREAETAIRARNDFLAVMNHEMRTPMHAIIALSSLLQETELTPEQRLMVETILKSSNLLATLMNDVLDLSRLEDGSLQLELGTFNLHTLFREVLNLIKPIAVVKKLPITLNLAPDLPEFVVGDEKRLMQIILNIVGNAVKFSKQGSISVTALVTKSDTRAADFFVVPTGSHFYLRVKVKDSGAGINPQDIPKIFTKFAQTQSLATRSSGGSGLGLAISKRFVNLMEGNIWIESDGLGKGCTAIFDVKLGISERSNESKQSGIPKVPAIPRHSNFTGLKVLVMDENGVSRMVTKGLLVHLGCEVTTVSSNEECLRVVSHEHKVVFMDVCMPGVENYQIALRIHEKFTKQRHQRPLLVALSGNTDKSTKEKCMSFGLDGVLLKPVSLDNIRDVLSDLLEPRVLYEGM

## PLS(FL C6S, C17S): mutated Arabidopsis full-length peptide in which both cysteines were replaced with serines (MKPRLSFNFRRRSISPSYISISYLLVAKLFKLFKIH; full-length; UniProt Q8LLV8 1-36, looked up, variant C6S C17S)
[1]; 100 nM, hydroponic, 10 days (Figure 5A)
  rescue of pls mutant by double-Cys mutant peptide: non-functional; also recorded: failing to rescue the short primary root phenotype of the pls mutant
[2]
  withholding of Cu(I) from BCA: does not

## C1: C-terminal 14 amino acids of Arabidopsis PLS (YLLVAKLFKLFKIH; UniProt Q8LLV8 23-36, looked up, fragment)
[1]; hydroponic, 10 days
  rescue of root growth of pls seedlings: unable to rescue the mutant

## silver ions
Pls mutant; pharmacological inhibition of ethylene signaling, ref Chilley et al., 2006
  rescue of pls mutant phenotype: rescued
Pls mutant; supply of silver ions, ref Casson et al., 2002
  rescue of pls mutant: rescued

## N2: N-terminal 9 amino acids of Arabidopsis PLS (MKPRLCFNF; UniProt Q8LLV8 1-9, looked up, fragment)
[1]; hydroponic, 10 days
  rescue of root growth of pls seedlings: unable to rescue the mutant

## N1: N-terminal 22 amino acids of Arabidopsis PLS (MKPRLCFNFRRRSISPCYISIS; UniProt Q8LLV8 1-22, looked up, fragment)
[1]; hydroponic, 10 days
  rescue of root growth of pls seedlings: rescued root growth
[1]; 50 nM, n = 25
  difference in rescue effects of PLS(FL) and PLS(N1), t-test P: > 0.1
[1]; 50 nM, n = 25, t-test
  difference in rescue effects of PLS(FL) and PLS(N1): did not differ significantly
[1]; hydroponic, 10 days, 100 nM (Figure 2B) or 50 nM (Figure 2C)
  rescue of short primary root length of pls mutant: able to rescue the short primary root length

## C2: C-terminal 24 amino acids of Arabidopsis PLS (SISPCYISISYLLVAKLFKLFKIH; UniProt Q8LLV8 13-36, looked up, fragment)
[1]; hydroponic, 10 days
  rescue of root growth of pls seedlings: unable to rescue the mutant

## O=C(O)COc1ccc(Cl)cc1Cl [2,4-D]
pPLS::GUS
  pPLS::GUS expression: throughout the root

B1: synthetic full-length POLARIS (PLS) peptide, PLS(FL) (peptide)
peptide: MKPRLCFNFRRRSISPCYISISYLLVAKLFKLFKIH
[3]
  Kd: 1900 nM
